Source: ChEMBL document CHEMBL5365408, “Small molecule inhibitors of PCSK9. SAR investigations of head and amine groups” (Bioorg Med Chem Lett, 2023)

Tests used:
Bone marrow cell = experiment: (§1) Cytotoxicity against rat Bone marrow cell assessed as inhibition of cell growth with (R)-4-(3H-[1,2,3]triazolo[4,5-b]pyridin-3-yl)-N-(3-chloropyridin-2-yl)-N-(piperidin-3-yl) benzamide as high potent effect standard by celltiter-glo assay; type: toxicity, cell-based; settings: bone marrow cell
[1] = target: T1, Proprotein convertase subtilisin/kexin type 9 (Homo sapiens, UniProt Q8NBP7); experiment: Inhibition of full length human PCSK9 expressed in human Huh-7 cells by ELISA analysis; type: cell-based
T1 sequence (Q8NBP7 31-152 limits assumed): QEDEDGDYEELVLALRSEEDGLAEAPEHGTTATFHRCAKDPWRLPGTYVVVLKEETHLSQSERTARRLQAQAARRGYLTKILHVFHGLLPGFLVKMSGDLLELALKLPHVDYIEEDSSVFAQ
T1 sequence (Q8NBP7 153-692 limits assumed): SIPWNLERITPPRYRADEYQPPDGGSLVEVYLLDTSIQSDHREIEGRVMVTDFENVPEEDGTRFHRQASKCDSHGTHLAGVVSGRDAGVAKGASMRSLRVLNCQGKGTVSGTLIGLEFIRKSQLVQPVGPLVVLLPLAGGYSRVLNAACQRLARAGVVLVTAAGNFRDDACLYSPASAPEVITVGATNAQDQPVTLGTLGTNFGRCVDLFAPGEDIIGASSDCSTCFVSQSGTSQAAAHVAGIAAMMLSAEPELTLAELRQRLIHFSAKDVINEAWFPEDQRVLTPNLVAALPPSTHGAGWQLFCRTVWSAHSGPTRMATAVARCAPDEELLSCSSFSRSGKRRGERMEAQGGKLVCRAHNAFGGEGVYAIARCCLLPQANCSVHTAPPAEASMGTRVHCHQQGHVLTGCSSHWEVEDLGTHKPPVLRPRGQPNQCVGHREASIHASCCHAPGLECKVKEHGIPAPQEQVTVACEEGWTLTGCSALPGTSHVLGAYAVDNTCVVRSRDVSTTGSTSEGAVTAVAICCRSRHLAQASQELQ

[2] = as §1; type: toxicity, cell-based; settings: rat, rat bone marrow cells
[3] = Cytotoxicity against rat Bone marrow cell assessed as inhibition of cell growth with puromycin as high potent effect standard by celltiter-glo assay; type: toxicity, cell-based; settings: rat bone marrow cells
[4] = Selectivity index, ratio of IC50 for cytotoxicity against rat Bone marrow cell assessed as inhibition of cell growth by celltiter-glo assay to IC50 for inhibition of full length human PCSK9 expressed in human Huh-7 cells by ELISA analysis
[5] = target: T1, Proprotein convertase subtilisin/kexin type 9; experiment: Inhibition of full length human PCSK9 expressed in human Huh-7 cells at 20 uM by ELISA analysis relative to control; type: cell-based

Row | Compound | IC50 (Bone marrow cell) [µM] | IC50 [1] [µM] | IC50 [2] [µM] | IC50 [3] [µM] | Ratio IC50 [4] | inhibition [5] [%]
1 | C[C@H]1CNC[C@H](N(C(=O)c2ccc(-n3nnc4cccnc43)cc2)c2ncccc2Cl)C1 | 22 | 14.1 |  |  |  | 
2 | O=C(c1ccc(-n2nnc3cccnc32)cc1)N(c1ncccc1Cl)[C@H]1CNC[C@H](c2ccccc2)C1 (racemic) |  | > 20 | 12.5 |  |  | 
3 | O=C(c1ccc(-n2nnc3cccnc32)cc1)N(c1nccc2c1CCCC2)[C@@H]1CCCNC1 |  | 2.28 |  | 0.41 | 0.18 | 
4 | Cn1ncc2ccnc(N(C(=O)c3ccc(-n4nnc5cccnc54)cc3)[C@@H]3CCCNC3)c21 |  | 0.62 |  | 0.18 | 0.29 | 
5 | O=C(c1ccc(-n2nnc3cccnc32)cc1)N(c1ncccc1Cl)[C@H]1CNC[C@@H](CO)C1 (racemic) |  |  | > 100 |  |  | 11
6 | CCc1cccnc1N(C(=O)c1ccc(-c2cnn3cccnc23)cc1)[C@@H]1CCCNC1 |  | 3.31 |  |  |  | 
7 | Cc1ccnc(N(C(=O)c2ccc(-n3nnc4cccnc43)cc2)[C@@H]2CCCNC2)c1Cl |  | 1.09 |  | 0.38 | 0.35 | 
8 | Cc1nccnc1N(C(=O)c1ccc(-n2nnc3cccnc32)cc1)[C@@H]1CCCNC1 |  | 1.84 | 10.9 | 2.36 | 1.28 | 
9 | O=C(c1ccc(-c2cnn3cccnc23)cc1)N(c1ncccc1-c1ccccc1)[C@@H]1CCCNC1 |  | 1.8 |  | 4.39 | 2.43 | 
10 | C[C@@H]1CNC[C@H](N(C(=O)c2ccc(-n3nnc4cccnc43)cc2)c2ncccc2Cl)C1 (racemic) |  |  | 35.6 |  |  | 
11 | O=C(c1ccc(-n2nnc3cccnc32)cc1)N(c1ncccc1C(F)(F)F)[C@@H]1CCCNC1 |  | 1.66 | 13.8 |  | 8.28 | 
12 | O=C(c1ccc(-n2nnc3cccnc32)cc1)N(c1ncccc1Cl)[C@H]1CNC[C@H](Oc2ccccc2)C1 (racemic) |  | > 20 |  |  |  | 
13 | CO[C@H]1CNC[C@H](N(C(=O)c2ccc(-n3nnc4cccnc43)cc2)c2ncccc2Cl)C1 (racemic) |  | > 20 | 76.6 |  |  | 
14 | C[C@H]1CNC[C@H](N(C(=O)c2ccc(-n3nnc4cccnc43)cc2)c2ncccc2Cl)C1 (racemic) |  |  | 37.2 |  |  | 
15 | O=C(c1ccc(-n2nnc3cccnc32)cc1)N(c1nccn1C1CC1)[C@@H]1CCCNC1 |  | 6.84 |  | 1.24 | 0.18 | 
16 | NC(=O)NC[C@H]1CNC[C@H](N(C(=O)c2ccc(-n3nnc4cccnc43)cc2)c2ncccc2Cl)C1 (racemic) |  | > 20 |  |  |  | 
17 | O=C(c1ccc(-n2nnc3cccnc32)cc1)N(c1ncccc1OC(F)(F)F)[C@@H]1CCCNC1 |  | 5.4 | 6.44 |  |  | 
18 | CC(=O)NC[C@H]1CNC[C@H](N(C(=O)c2ccc(-n3nnc4cccnc43)cc2)c2ncccc2Cl)C1 (racemic) |  | > 20 |  |  |  | 
